Measurements: ChEMBL document CHEMBL1201862, “PubChem BioAssay data set” (2004)
Activity calls are given as the source filed them.

Assays:
[1] = target: T1, Corticotropin-releasing factor receptor 2/Corticotropin-releasing factor-binding protein (Homo sapiens, UniProt P24387+Q13324); assay: Dose Response confirmation of uHTS hits for small molecule antagonists of the CRF-binding protein and CRF-R2 receptor complex.; assay type: functional; conditions: read-out: IC50_Mean
T1 sequence (Q13324 whole entry): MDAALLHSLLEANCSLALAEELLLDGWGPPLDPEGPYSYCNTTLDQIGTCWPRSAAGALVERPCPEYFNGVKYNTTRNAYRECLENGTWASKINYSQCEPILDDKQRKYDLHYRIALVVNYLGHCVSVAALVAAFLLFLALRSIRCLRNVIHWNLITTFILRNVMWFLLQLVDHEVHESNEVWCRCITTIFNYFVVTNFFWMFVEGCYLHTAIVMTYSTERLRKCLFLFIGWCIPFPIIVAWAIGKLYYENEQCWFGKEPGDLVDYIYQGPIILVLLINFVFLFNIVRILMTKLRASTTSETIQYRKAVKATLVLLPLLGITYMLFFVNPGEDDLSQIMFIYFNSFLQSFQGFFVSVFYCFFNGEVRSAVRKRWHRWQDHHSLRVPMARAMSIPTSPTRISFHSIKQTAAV
T1 sequence (P24387 whole entry): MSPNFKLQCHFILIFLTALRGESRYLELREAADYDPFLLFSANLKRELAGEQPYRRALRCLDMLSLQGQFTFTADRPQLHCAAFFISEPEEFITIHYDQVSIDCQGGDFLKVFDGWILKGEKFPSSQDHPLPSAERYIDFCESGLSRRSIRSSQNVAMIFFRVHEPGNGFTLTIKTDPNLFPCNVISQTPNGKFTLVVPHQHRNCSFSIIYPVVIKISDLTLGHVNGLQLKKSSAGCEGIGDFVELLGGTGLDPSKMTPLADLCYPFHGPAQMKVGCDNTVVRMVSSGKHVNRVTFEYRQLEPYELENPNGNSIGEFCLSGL

[2] = CRF-BP/CRF-R2 complex antagonists, dose response, cell-based, uHTS hits, 384-well (AID 651639); assay type: functional, Homo sapiens; conditions: read-out: IC50_Mean
[3] = target: T1, Corticotropin-releasing factor receptor 2/Corticotropin-releasing factor-binding protein; assay: activators of CRF receptor 2 with binding protein – uHTS hits, confirmation (AID 602473); assay type: functional; conditions: read-out: EC50_Mean
[4] = target: T2, Sentrin-specific protease 1 (Homo sapiens, UniProt Q9P0U3); assay: Dose response confirmation of small molecule inhibitors of the catalytic domain of the SUMO protease, SENP1 in a FRET assay.; assay type: functional; conditions: read-out: IC50_Mean
T2 sequence (Q9P0U3 whole entry): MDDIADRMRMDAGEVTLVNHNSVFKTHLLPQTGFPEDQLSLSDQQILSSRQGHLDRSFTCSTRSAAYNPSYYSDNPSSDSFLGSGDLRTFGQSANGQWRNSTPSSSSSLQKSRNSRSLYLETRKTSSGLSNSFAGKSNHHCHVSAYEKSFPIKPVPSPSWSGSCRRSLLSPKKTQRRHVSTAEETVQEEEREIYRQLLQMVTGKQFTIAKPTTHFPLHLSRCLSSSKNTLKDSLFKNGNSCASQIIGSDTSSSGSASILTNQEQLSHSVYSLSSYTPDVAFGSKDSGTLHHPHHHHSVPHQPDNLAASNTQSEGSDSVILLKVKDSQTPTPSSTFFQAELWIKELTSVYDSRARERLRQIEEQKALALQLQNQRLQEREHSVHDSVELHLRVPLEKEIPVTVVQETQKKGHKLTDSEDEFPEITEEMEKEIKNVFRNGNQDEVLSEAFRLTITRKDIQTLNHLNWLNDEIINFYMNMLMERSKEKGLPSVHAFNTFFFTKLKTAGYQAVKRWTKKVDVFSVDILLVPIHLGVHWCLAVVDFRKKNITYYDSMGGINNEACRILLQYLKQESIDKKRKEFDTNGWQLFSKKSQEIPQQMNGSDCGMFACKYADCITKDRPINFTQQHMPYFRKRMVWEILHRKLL

[5] = target: T2, Sentrin-specific protease 1; assay: potency of human SENP1 inhibitors, dose response, biochemical, kinetic FRET (AID 651697); assay type: functional; conditions: read-out: IC50_Mean
[6] = inhibitors of intracellular T. cruzi replication, confirmation, NIH3T3 host cells, beta-gal luminescence (AID 2044); assay type: functional, cell-based;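 further: intracellular parasites grown in NIH/3T3 mouse fibroblasts as host cells; luminescent beta-galactosidase reporter signal from transgenic T. cruzi replicating inside host cells; inhibitors lower the luminescence signal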
[7] = target: T3, Probable nicotinate-nucleotide adenylyltransferase (Staphylococcus aureus (strain N315), UniProt P65502); assay type: functional, Staphylococcus aureus subsp. aureus N315;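 on IC50 Mean: confirmatory dose-response retesting of NadD inhibitor hits first found in an ultra-high-throughput screen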
[8] = cytotoxicity toward NIH3T3 fibroblasts, dose response, counter-screen, cell-based, ATP luminescence, mouse fibroblasts (AID 2010); assay type: functional;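 further: cells exposed to compound for about 90 hours before reading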
[9] = target: T3, Probable nicotinate-nucleotide adenylyltransferase; assay type: functional, Staphylococcus aureus subsp. aureus N315; conditions: read-out: IC50_Mean
[10] = HEp-2 cell cytotoxicity, dose response, cytotoxicity control for RSV inhibitor project, HTS (AID 2410); assay type: functional; conditions: human respiratory syncytial virus
[11] = target: T4, Low molecular weight phosphotyrosine protein phosphatase (Homo sapiens, UniProt P24666); assay type: functional; conditions: read-out: IC50_Mean;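 further: Dose-response confirmation assay measuring inhibition of LMPTP enzyme activity by fluorescence intensity read-out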
T4 sequence (P24666 whole entry): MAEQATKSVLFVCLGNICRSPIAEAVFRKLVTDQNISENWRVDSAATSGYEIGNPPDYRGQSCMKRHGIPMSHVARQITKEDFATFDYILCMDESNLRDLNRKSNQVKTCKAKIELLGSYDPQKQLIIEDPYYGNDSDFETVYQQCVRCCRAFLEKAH

[12] = target: T5, Sentrin-specific protease 8 (Homo sapiens, UniProt Q96LD8); assay type: functional;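 further: luminescence read-out of SENP8 inhibition, dose-response confirmation following an ultra-high-throughput screen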
T5 sequence (Q96LD8 whole entry): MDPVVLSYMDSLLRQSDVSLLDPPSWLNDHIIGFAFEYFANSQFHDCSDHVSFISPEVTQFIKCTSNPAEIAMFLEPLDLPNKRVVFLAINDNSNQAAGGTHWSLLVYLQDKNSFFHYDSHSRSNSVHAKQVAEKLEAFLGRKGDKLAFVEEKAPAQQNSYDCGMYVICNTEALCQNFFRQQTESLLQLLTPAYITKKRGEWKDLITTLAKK

[13] = target: T5, Sentrin-specific protease 8; assay: SENP8 protease inhibitors, SAR follow-up, biochemical, luminescence (AID 504501); assay type: functional
Caspase-3 [14] = target: T6, Caspase-3 (Homo sapiens, UniProt P42574); assay type: functional
T6 sequence (P42574 whole entry): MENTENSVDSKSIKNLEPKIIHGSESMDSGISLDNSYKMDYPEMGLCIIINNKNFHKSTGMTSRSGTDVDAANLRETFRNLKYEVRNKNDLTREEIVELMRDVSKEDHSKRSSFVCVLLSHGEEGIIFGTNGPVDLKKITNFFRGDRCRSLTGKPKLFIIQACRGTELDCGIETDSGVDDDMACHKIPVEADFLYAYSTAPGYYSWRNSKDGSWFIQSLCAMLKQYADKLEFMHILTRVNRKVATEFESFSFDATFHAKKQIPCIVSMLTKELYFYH

[15] = target: T7, Sentrin-specific protease 7 (Homo sapiens, UniProt Q9BQF6); assay type: functional;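 further: Luminescence-based dose-response confirmation of ultra-high-throughput screening hits, measuring inhibition of SENP7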
T7 sequence (Q9BQF6 whole entry): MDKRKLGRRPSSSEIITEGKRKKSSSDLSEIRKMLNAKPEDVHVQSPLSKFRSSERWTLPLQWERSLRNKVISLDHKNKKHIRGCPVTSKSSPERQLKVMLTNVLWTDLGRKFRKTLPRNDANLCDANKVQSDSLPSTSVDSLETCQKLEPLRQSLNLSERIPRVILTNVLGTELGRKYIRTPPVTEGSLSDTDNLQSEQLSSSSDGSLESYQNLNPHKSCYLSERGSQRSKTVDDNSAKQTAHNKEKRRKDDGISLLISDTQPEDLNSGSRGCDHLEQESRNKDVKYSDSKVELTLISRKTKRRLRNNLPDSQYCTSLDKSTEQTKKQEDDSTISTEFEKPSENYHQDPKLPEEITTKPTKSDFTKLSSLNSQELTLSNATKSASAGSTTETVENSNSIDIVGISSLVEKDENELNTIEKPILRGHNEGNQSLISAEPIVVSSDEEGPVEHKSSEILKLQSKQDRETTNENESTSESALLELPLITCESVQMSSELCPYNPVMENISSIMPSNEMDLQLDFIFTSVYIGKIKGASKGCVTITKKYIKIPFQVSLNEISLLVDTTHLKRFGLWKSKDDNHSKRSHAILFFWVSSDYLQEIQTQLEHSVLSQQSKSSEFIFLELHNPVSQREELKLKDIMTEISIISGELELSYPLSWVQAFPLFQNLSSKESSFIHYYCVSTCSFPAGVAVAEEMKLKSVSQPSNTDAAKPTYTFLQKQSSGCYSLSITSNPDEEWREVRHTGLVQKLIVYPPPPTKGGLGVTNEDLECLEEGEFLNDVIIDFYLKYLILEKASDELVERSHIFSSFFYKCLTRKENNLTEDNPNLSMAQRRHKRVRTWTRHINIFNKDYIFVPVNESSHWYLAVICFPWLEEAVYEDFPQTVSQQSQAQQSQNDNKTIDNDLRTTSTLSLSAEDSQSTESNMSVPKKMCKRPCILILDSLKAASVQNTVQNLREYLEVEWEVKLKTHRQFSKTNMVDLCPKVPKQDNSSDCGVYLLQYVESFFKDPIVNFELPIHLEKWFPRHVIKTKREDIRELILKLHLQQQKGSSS

[16] = target: T8, Sentrin-specific protease 6 (Homo sapiens, UniProt Q9GZR1); assay type: functional
T8 sequence (Q9GZR1 whole entry): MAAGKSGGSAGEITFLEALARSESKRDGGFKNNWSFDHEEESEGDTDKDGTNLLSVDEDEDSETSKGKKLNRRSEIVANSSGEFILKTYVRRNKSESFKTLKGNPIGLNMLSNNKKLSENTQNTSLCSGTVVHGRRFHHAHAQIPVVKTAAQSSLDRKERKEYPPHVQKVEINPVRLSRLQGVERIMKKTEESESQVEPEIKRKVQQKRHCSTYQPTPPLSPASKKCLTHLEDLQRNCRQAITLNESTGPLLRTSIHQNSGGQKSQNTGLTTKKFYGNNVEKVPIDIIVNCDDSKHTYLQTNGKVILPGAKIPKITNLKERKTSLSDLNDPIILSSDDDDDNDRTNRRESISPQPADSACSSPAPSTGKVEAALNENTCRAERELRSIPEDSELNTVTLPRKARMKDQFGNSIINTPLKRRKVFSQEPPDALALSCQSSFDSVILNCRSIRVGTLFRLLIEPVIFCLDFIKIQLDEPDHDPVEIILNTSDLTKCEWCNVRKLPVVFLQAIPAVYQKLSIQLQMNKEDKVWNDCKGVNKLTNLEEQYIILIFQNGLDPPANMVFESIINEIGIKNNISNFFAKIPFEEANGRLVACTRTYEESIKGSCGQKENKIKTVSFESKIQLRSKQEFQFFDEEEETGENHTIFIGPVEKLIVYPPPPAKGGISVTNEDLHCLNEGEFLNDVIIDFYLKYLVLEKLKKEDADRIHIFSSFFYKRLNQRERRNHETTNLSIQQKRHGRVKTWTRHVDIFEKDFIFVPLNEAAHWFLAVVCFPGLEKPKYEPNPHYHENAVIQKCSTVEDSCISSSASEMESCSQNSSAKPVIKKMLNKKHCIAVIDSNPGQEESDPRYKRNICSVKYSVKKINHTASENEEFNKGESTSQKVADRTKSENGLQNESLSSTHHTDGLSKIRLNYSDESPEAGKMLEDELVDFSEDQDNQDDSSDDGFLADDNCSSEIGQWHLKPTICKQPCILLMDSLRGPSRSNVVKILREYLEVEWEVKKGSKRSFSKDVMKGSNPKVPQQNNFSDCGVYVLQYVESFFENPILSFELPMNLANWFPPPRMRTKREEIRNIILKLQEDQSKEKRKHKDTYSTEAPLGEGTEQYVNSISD

[17] = target: T7, Sentrin-specific protease 7; assay: SENP7 protease inhibitors, SAR follow-up, biochemical, luminescence (AID 504497); assay type: functional
[18] = target: T8, Sentrin-specific protease 6; assay: SAR Analysis of small molecule inhibitors of Sentrin-specific protease 6 (SENP6) using a Luminescent assay. [Related pubchem assays (depositor defined):AID2582, AID2599]; assay type: functional
Caspase-3 [19] = target: T6, Caspase-3; assay: SAR Analysis of small molecule inhibitors of Sentrin-specific proteases (SENPs) using a Caspase-3 Selectivity assay. [Related pubchem assays (depositor defined):AID2540, AID2599, AID434973, AID489001]; assay type: functional

T3 sequence (P65502 whole entry): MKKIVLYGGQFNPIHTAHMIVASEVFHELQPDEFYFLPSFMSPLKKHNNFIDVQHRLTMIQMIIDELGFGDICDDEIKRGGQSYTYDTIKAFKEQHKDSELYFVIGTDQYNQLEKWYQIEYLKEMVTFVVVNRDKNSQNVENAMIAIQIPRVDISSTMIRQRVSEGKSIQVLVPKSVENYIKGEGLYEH

For `COC(=O)C1=NN(c2ccccc2)C2(S1)SC(C(C)=O)=C(C)N2c1ccccc1` (configuration not stated), the IC50 [1] was 25.7 µM (active), the IC50 [2] was 19 µM (active) and the EC50 [3] was > 53 µM (inactive).
For `O=C(Nc1cc2c(cc1Cl)-c1ccc([N+](=O)[O-])cc1C2=NO)C(F)(F)F`, the IC50 [4] was 2.89 µM (active) and the IC50 [5] was 12.5 µM (active).
In the case of `Cc1c(C(=O)N2CC3(CC(c4cccc(NC(=O)CC(c5ccccc5)c5ccccc5)c4)=NO3)C[C@@H]2C(N)=O)cc([N+](=O)[O-])cc1[N+](=O)[O-]` (some centres not stated), the EC50 [6] is reported as 1.05 µM (active), the IC50 [7] is reported as 16.8 µM (active) and the EC50 [8] is reported as > 60 µM (not active). The IC50 [9] was 38.4 µM (active).
With `O=C(Nc1ccc(S(=O)(=O)Nc2nccs2)cc1)c1cccc(N2C(=O)c3ccccc3C2=O)c1` the IC50 [7] was 9.8 µM (active) and the IC50 [9] was 38.2 µM (active).
For `CCn1cc(C(=O)O)c(=O)c2cc(F)c(N3CCN(C(=O)Nc4ccccc4)CC3)cc21`, the IC50 (cells) was 26.9 µM (active), the CC50 [10] was > 50 µM (active) and the IC50 [11] was 73.1 µM (inactive).
With `Cc1nn(Cc2ccc(Cl)cc2)c(C)c1NC(=O)c1ccc([N+](=O)[O-])cc1` the IC50 [1] was < 0.368 µM (active), the IC50 [2] was > 20 µM (inactive) and the EC50 [3] was > 53 µM (inactive).
With `CSc1nc2ccc(NC(=O)c3cc4ccccc4o3)cc2s1` the IC50 [12] was 94.3 µM (active), the IC50 [13] was 0.869 µM (active) and the IC50 (Caspase-3 [14]) was > 100 µM (inactive). For the same compound, the IC50 [15] was > 100 µM (inactive), the IC50 [16] was 13.5 µM (active) and the IC50 [17] was 0.896 µM (active). For the same compound, the IC50 [18] was 0.905 µM (active) and the IC50 (Caspase-3 [19]) was 1.41 µM (active).
In the case of `COc1ccc(Nc2cc(C)nc3ncnn23)cc1Cl`, the IC50 [4] is reported as 19.6 µM (active) and the IC50 [5] is reported as 40.8 µM (inactive).
